What was measured:
FAP = biological target: T1, FAP (Homo sapiens, UniProt Q12884); assay: Cell binding experiment in HT1080-FAP tumor cells (FIG. 11B); conditions: cell experiment of HT1080-FAP
T1 construct: expressed in transfected cells; host or cells: HT1080-FAP tumor cells
T1 sequence (Q12884 1-760): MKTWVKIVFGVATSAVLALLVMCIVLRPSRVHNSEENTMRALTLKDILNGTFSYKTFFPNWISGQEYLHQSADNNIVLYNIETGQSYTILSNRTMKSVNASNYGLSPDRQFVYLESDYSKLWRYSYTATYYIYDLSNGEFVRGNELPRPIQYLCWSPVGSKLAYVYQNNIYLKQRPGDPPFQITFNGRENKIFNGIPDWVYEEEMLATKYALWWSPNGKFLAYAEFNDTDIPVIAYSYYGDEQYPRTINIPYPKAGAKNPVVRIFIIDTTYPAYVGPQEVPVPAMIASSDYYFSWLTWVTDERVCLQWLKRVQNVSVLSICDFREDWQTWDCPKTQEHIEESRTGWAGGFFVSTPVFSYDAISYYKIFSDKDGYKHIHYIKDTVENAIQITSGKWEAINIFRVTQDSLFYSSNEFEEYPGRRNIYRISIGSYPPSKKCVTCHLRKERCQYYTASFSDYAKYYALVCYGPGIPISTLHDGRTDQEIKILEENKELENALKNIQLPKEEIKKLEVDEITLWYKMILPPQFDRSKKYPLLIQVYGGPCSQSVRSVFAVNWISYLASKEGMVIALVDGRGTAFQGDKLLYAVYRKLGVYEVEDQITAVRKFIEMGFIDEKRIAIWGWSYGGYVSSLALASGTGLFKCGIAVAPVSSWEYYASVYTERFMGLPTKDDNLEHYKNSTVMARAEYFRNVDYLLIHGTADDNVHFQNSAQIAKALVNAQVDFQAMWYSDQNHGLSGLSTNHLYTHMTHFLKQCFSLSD

HT1080-FAP tumor cells = assay: Cell uptake and blocking experiment in HT1080-FAP tumor cells; type: cell-based; conditions: blocking experiment

| Compound | IC50 (FAP) | blocking of the cell uptake of 68Ga-FAPI-RGD (HT1080-FAP tumor cells) |
| --- | --- | --- |
| N#C[C@@H]1CCCN1C(=O)CNC(=O)c1ccnc2ccc(OCCCN3CCN(C(=O)CCOCCOCCNC(=O)[C@H](CCC(=O)NCCOCCOCCC(=O)NCCCC[C@@H]4NC(=O)[C@@H](Cc5ccccc5)NC(=O)[C@H](CC(=O)O)NC(=O)CNC(=O)[C@H](CCCNC(=N)N)NC4=O)NC(=O)CN4CCN(CC(=O)O)CCN(CC(=O)O)CC4)CC3)cc12 [68Ga-FAPI-RGD, metal not drawn] | 11.2 nM | – |
| C(RGDfK) | – | partially inhibited |
| N#C[C@@H]1CCCN1C(=O)CNC(=O)c1ccnc2ccc(OCCCN3CCN(C(=O)CN4CCN(CC(=O)O)CCN(CC(=O)O)CCN(CC(=O)O)CC4)CC3)cc12 [FAPI-02] | – | partially inhibited |

Reference: patent US11992536B2, “Dual-targeting compound and preparation method and application thereof” (YANTAI LANNACHENG BIOTECHNOLOGY CO., LTD., priority 2022, dated 2024)
